Laboratory results taken from patent US20170190671A1, “BIS(ARYL)CATECHOL DERIVATIVES AS HERBICIDES” (E I DU PONT DE NEMOURS AND COMPANY, priority 2014, published 2017).

How the values were obtained:
Format in all cases: in vivo
[1] = test system: barnyardgrass (Echinochloa crus-galli); assay: Test B flooded paddy; details: Echinochloa crus-galli, 336 h; 250 g ai/ha, Flood, 13 to 15 days, scale 0 (no effect) to 100 (complete control); read-out: Plant response rating, Barnyardgrass
In short: (§1)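 Compound was added to standing water 3 cm above soil, flood maintained, and plants held in a greenhouse before visual scoring against controls at 13 to 15 days.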

[2] = test system: ducksalad (Heteranthera limosa); assay: Test B flooded paddy; details: Heteranthera limosa, 336 h; 250 g ai/ha, Flood, 13 to 15 days, scale 0 (no effect) to 100 (complete control); read-out: Plant response rating, Ducksalad
In short: as §1

rice (Oryza sativa) = assay: Test B flooded paddy; details: Oryza sativa, 336 h; 250 g ai/ha, Flood, 13 to 15 days, scale 0 (no effect) to 100 (complete control); read-out: Plant response rating, Rice
In short: as §1

[3] = test system: sedge, umbrella (small-flower umbrella sedge, Cyperus difformis); assay: Test B flooded paddy; details: Cyperus difformis, 336 h; 250 g ai/ha, Flood, 13 to 15 days, scale 0 (no effect) to 100 (complete control); read-out: Plant response rating, Sedge, Umbrella
In short: as §1

[4] = test system: Italian ryegrass (Lolium multiflorum); assay: Test A preemergence; details: Lolium multiflorum, pre-emergence, 240 h, 0 to 100 scale (0 no effect, 100 complete control), read-out: Ryegrass, Italian plant response rating
In short: (§2)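 Compounds in non-phytotoxic solvent with surfactant applied as soil spray preemergence, or postemergence to plants 2-10 cm at one- to two-leaf stage, in loam/sand. After approximately 10 days in greenhouse, injury rated visually versus untreated controls, 0 (no effect) to 100 (complete control).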

[5] = test system: barnyardgrass (Echinochloa crus-galli); assay: Test A preemergence; details: Echinochloa crus-galli, pre-emergence, 240 h
In short: as §2

[6] = test system: giant foxtail (Setaria faberii); assay: Test A preemergence; details: Setaria faberi, pre-emergence, 240 h, 0 to 100 scale (0 no effect, 100 complete control), read-out: Foxtail, Giant plant response rating
In short: as §2

kochia (Kochia scoparia) [7] = assay: Test A preemergence; details: Bassia scoparia, pre-emergence, 240 h, 0 to 100 scale (0 no effect, 100 complete control), read-out: Kochia plant response rating
In short: as §2

[8] = test system: pigweed (Amaranthus retroflexus); assay: Test A preemergence; details: Amaranthus retroflexus, pre-emergence, 240 h, 0 to 100 scale (0 no effect, 100 complete control), read-out: Pigweed plant response rating
In short: as §2

[9] = test system: ragweed (common ragweed, Ambrosia elatior); assay: Test A preemergence; details: Ambrosia artemisiifolia, pre-emergence, 240 h, 0 to 100 scale (0 no effect, 100 complete control), read-out: Ragweed plant response rating
In short: as §2

[10] = test system: Italian ryegrass (Lolium multiflorum); assay: Test A postemergence; details: Lolium multiflorum, post-emergence, 240 h, 0 to 100 scale, read-out: Plant response rating, Ryegrass, Italian
In short: as §2

[11] = test system: barnyardgrass (Echinochloa crus-galli); assay: Test A postemergence; details: Echinochloa crus-galli, post-emergence, 240 h, 0 to 100 scale, read-out: Plant response rating, Barnyardgrass
In short: as §2

[12] = test system: blackgrass (Alopecurus myosuroides); assay: Test A postemergence; details: Alopecurus myosuroides, post-emergence, 240 h, 0 to 100 scale, read-out: Plant response rating, Blackgrass
In short: as §2

corn (Zea mays) = assay: Test A postemergence; details: Zea mays, post-emergence, 240 h, 0 to 100 scale
In short: as §2

[13] = test system: galium (catchweed bedstraw, Galium aparine); assay: Test A postemergence; details: Galium, post-emergence, 240 h, 0 to 100 scale, read-out: Plant response rating, Galium
In short: as §2

[14] = test system: giant foxtail (Setaria faberii); assay: Test A postemergence; details: Setaria faberi, post-emergence, 240 h, 0 to 100 scale, read-out: Plant response rating, Foxtail, Giant
In short: as §2

kochia (Kochia scoparia) [15] = assay: Test A postemergence; details: Bassia scoparia, post-emergence, 240 h, 0 to 100 scale, read-out: Plant response rating, Kochia
In short: as §2

[16] = test system: pigweed (Amaranthus retroflexus); assay: Test A postemergence; details: Amaranthus retroflexus, post-emergence, 240 h, 0 to 100 scale, read-out: Plant response rating, Pigweed
In short: as §2

[17] = test system: ragweed (common ragweed, Ambrosia elatior); assay: Test A postemergence; details: Ambrosia artemisiifolia, post-emergence, 240 h, 0 to 100 scale, read-out: Plant response rating, Ragweed
In short: as §2

[18] = test system: wheat (Triticum aestivum); assay: Test A postemergence; details: Triticum aestivum, post-emergence, 240 h, 0 to 100 scale, read-out: Plant response rating, Wheat
In short: as §2

[19] = test system: pigweed (Amaranthus retroflexus); assay: Test C postemergence; details: Amaranthus retroflexus, post-emergence, 336 h, Postemergence, scale 0 to 100, read-out: Plant response rating, Pigweed
Excerpt: (§3) Seeds of plant species selected from blackgrass (Alopecurus myosuroides), Italian ryegrass (Lolium multiflorum), winter wheat (Triticum aestivum), galium (catchweed bedstraw, Galium aparine), corn (Zea mays), large (Lg) crabgrass (Digitaria sanguinalis), giant foxtail (Setaria faberii), johnsongrass (Sorghum halepense), lambsquarters (Chenopodium album), morningglory (Ipomoea coccinea), yellow nutsedge (Cyperus esculentus), pigweed (Amaranthus retroflexus), ragweed (common ragweed, Ambrosia elatior), soybean (Glycine max), barnyardgrass (Echinochloa crus-galli), oilseed rape (Brassica napus), waterhemp (common waterhemp, Amaranthus rudis), and velvetleaf (Abutilon theophrasti) were planted into a blend of loam soil and sand and treated preemergence with test chemicals formulated in a non-phytotoxic solvent mixture which included a surfactant.
(§4) At the same time, plants selected from these crop and weed species and also chickweed (common chickweed, Stellaria media), kochia (Kochia scoparia), and wild oat (Avena fatua), were planted in pots containing Redi-Earth® planting medium (Scotts Company, 14111 Scottslawn Road, Marysville, Ohio 43041) comprising spaghnum peat moss, vermiculite, wetting agent and starter nutrients and treated with postemergence applications of test chemicals formulated in the same manner. Plants ranged in height from 2 to 18 cm (1- to 4-leaf stage) for postemergence treatments. Treated plants and controls were maintained in a greenhouse for 13 to 15 days, after which time all species were compared to controls and visually evaluated. Plant response ratings, summarized in Table C, are based on a scale of 0 to 100 where 0 is no effect and 100 is complete control. A dash (-) response means no test result.

[20] = test system: waterhemp (common waterhemp, Amaranthus rudis); assay: Test C postemergence; details: Amaranthus tuberculatus, post-emergence, Postemergence, scale 0 to 100, read-out: Plant response rating, Waterhemp
Excerpt: as §3, §4

SMILES: N#Cc1cccc(Oc2ncc(Cl)cn2)c1Oc1ccc(Cl)cn1 [Compound 16, 2-[(5-chloro-2-pyridinyl)oxy]-3-[(5-chloro-2-pyrimidinyl)oxy]benzonitrile]
- pest or weed control at 250 g/ha [1]: 20%
- pest or weed control at 250 g/ha [2]: 90%
- plant injury at 250 g/ha (rice (Oryza sativa)): 40%
- pest or weed control at 250 g/ha [3]: 95%
- pest or weed control at 31 g/ha ([4]; 31 g ai/ha): 0%
- pest or weed control at 125 g/ha ([4]; 125 g ai/ha): 20%
- pest or weed control at 31 g/ha ([5]; 31 g ai/ha, 0 to 100 scale (0 no effect, 100 complete control), read-out: Barnyardgrass plant response rating): 30%
- pest or weed control at 125 g/ha ([5]; 125 g ai/ha, 0 to 100 scale, read-out: Plant response rating, Barnyardgrass): 70%
- pest or weed control at 31 g/ha ([6]; 31 g ai/ha): 90%
- pest or weed control at 125 g/ha ([6]; 125 g ai/ha): 100%
- pest or weed control at 31 g/ha (kochia (Kochia scoparia) [7]; 31 g ai/ha): 30%
- pest or weed control at 125 g/ha (kochia (Kochia scoparia) [7]; 125 g ai/ha): 90%
- pest or weed control at 31 g/ha ([8]; 31 g ai/ha): 100%
- pest or weed control at 125 g/ha ([8]; 125 g ai/ha): 100%
- pest or weed control at 31 g/ha ([9]; 31 g ai/ha): 0%
- pest or weed control at 125 g/ha ([9]; 125 g ai/ha): 0%
- pest or weed control at 31 g/ha ([10]; 31 g ai/ha): 40%
- pest or weed control at 125 g/ha ([10]; 125 g ai/ha): 80%
- pest or weed control at 31 g/ha ([11]; 31 g ai/ha): 10%
- pest or weed control at 125 g/ha ([11]; 125 g ai/ha): 70%
- pest or weed control at 31 g/ha ([12]; 31 g ai/ha): 50%
- pest or weed control at 125 g/ha ([12]; 125 g ai/ha): 70%
- Corn plant response rating (crop injury, 0 = no effect, 100 = complete kill) at 31 g/ha (corn (Zea mays); 31 g ai/ha): 0%
- Corn plant response rating (crop injury, 0 = no effect, 100 = complete kill) at 125 g/ha (corn (Zea mays); 125 g ai/ha): 20%
- pest or weed control at 31 g/ha ([13]; 31 g ai/ha): 90%
- pest or weed control at 125 g/ha ([13]; 125 g ai/ha): 90%
- pest or weed control at 31 g/ha ([14]; 31 g ai/ha): 70%
- pest or weed control at 125 g/ha ([14]; 125 g ai/ha): 80%
- pest or weed control at 31 g/ha (kochia (Kochia scoparia) [15]; 31 g ai/ha): 50%
- pest or weed control at 125 g/ha (kochia (Kochia scoparia) [15]; 125 g ai/ha): 100%
- pest or weed control at 31 g/ha ([16]; 31 g ai/ha): 100%
- pest or weed control at 125 g/ha ([16]; 125 g ai/ha): 100%
- pest or weed control at 31 g/ha ([17]; 31 g ai/ha): 10%
- pest or weed control at 125 g/ha ([17]; 125 g ai/ha): 30%
- plant injury at 31 g/ha ([18]; 31 g ai/ha): 0%
- plant injury at 125 g/ha ([18]; 125 g ai/ha): 20%
- pest or weed control at 31 g/ha ([19]; 31 g ai/ha): 80%
- pest or weed control at 62 g/ha ([19]; 62 g ai/ha): 85%
- pest or weed control at 125 g/ha ([19]; 125 g ai/ha): 100%
- pest or weed control at 31 g/ha ([20]; 31 g ai/ha): 90%
- pest or weed control at 62 g/ha ([20]; 62 g ai/ha): 95%
- pest or weed control at 125 g/ha ([20]; 125 g ai/ha): 90%
